From ChEMBL document CHEMBL5523713, “Development of novel N-aryl-2,4-bithiazole-2-amine-based CYP1B1 degraders for reversing drug resistance” (Eur J Med Chem, 2024)
Peptide text beside a SMILES is read from it. * marks the point of attachment. Cbz = O=C(OCc1ccccc1)*

How the values were obtained:
Format in all cases: ADME, cell-based
[1] = target: T1, von Hippel-Lindau disease tumor suppressor/Cytochrome P450 1B1 (Homo sapiens, UniProt Q16678+P40337); assay: PROTAC activity at VHL/CYP1B1 in human A549/Taxol cells assessed as degradation by measuring fold change in remaining CYP1B1 level at 1000 nM incubated for 24 hrs by Western blotting analysis (reference value: 1); conditions: 1 µM
T1 sequence (Q16678 whole entry): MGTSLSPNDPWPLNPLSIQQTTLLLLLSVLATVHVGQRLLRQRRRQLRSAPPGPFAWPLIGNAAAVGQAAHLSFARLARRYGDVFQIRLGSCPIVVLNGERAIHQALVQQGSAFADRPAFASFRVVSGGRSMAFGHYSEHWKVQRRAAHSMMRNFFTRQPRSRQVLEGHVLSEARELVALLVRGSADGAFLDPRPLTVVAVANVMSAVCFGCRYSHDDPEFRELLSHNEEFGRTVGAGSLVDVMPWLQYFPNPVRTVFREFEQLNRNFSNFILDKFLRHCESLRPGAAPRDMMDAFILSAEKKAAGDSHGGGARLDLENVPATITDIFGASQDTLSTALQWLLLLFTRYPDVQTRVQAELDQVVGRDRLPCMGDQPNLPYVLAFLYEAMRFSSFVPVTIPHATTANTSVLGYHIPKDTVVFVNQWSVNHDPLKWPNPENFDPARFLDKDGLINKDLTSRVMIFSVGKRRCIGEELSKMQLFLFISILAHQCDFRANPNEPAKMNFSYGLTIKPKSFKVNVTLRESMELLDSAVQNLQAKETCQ
T1 sequence (P40337 whole entry): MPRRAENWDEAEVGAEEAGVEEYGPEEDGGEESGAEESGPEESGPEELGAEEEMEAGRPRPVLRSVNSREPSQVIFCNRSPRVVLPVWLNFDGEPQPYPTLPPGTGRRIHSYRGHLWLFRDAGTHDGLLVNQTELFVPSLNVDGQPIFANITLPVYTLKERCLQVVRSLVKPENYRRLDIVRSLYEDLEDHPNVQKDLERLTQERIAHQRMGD

[2] = target: T1, von Hippel-Lindau disease tumor suppressor/Cytochrome P450 1B1; assay: PROTAC activity at VHL/CYP1B1 in human A549/Taxol cells assessed as degradation by measuring fold change in remaining CYP1B1 level at 1 nM incubated for 24 hrs by Western blotting analysis (reference value: 1); conditions: 0.001 µM
[3] = target: T2, Protein cereblon/Cytochrome P450 1B1 (Homo sapiens, UniProt Q16678+Q96SW2); assay: PROTAC activity at CRBN/CYP1B1 in human A549/Taxol cells assessed as degradation by measuring fold change in remaining CYP1B1 level at 1 nM incubated for 24 hrs by Western blotting analysis (reference value: 1); conditions: 0.001 µM
T2 sequence (Q16678 whole entry): as the sequence (Q16678 whole entry) above
T2 sequence (Q96SW2 whole entry): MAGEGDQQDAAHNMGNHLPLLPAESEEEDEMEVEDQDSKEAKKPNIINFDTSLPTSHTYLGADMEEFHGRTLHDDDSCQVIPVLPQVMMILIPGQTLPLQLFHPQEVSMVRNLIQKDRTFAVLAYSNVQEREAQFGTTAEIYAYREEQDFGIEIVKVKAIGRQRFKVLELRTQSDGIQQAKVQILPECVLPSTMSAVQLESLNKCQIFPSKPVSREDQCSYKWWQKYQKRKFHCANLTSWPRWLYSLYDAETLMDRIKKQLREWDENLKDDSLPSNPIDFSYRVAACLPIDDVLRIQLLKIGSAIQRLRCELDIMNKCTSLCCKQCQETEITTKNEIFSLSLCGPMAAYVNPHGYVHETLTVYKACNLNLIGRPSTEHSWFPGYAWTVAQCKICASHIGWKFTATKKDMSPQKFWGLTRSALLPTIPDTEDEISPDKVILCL

[4] = target: T2, Protein cereblon/Cytochrome P450 1B1; assay: PROTAC activity at CRBN/CYP1B1 in human A549/Taxol cells assessed as degradation by measuring fold change in remaining CYP1B1 level at 1000 nM incubated for 24 hrs by Western blotting analysis (reference value: 1); conditions: 1 µM
[5] = target: T1, von Hippel-Lindau disease tumor suppressor/Cytochrome P450 1B1; assay: PROTAC activity at VHL/CYP1B1 in human A549/Taxol cells assessed as reduction in CYP1B1 level at 1 uM incubated for 24 hrs by Western blotting analysis
[6] = target: T1, von Hippel-Lindau disease tumor suppressor/Cytochrome P450 1B1; assay: PROTAC activity at VHL/CYP1B1 in human A549/Taxol cells assessed as reduction in CYP1B1 level at 1 nM incubated for 24 hrs by Western blotting analysis; parameters: scale not given: the % may be the effect or the level left; conditions: 0.001 µM
[7] = target: T1, von Hippel-Lindau disease tumor suppressor/Cytochrome P450 1B1; assay: PROTAC activity at VHL/CYP1B1 in human A549/Taxol cells assessed as reduction in CYP1B1 level at 1000 nM incubated for 24 hrs by Western blotting analysis; parameters: scale not given: the % may be the effect or the level left; conditions: 1 µM

SMILES | fold change (FC) [1] | fold change (FC) [2] | fold change (FC) [3] | fold change (FC) [4] | also measured
Cc1ncsc1-c1ccc([C@H](C)NC(=O)[C@@H]2C[C@@H](O)CN2C(=O)[C@@H](NC(=O)CCCCCCCCCCCOc2ccccc2-c2csc(-c3csc(Nc4ccc(Cl)cc4)n3)n2)C(C)(C)C)cc1 | 2 | 0.9 | – | – | –
O=C1CCC(N2Cc3c(NC(=O)CCCCCC(=O)Nc4ccc(-c5csc(-c6csc(Nc7ccc(Cl)cc7)n6)n5)cc4)cccc3C2=O)C(=O)N1 (stereo not drawn) | – | – | 1.1 | 1 | –
Cc1ncsc1-c1ccc([C@H](C)NC(=O)[C@@H]2C[C@@H](O)CN2C(=O)[C@@H](NC(=O)CCCCCOc2ccccc2-c2csc(-c3csc(Nc4ccc(Cl)cc4)n3)n2)C(C)(C)C)cc1 | 1.5 | 0.5 | – | – | –
O=C1CCC(N2C(=O)c3cccc(NC(=O)CN4CCN(CCCCCC(=O)Nc5ccc(-c6csc(-c7csc(Nc8ccc(Cl)cc8)n7)n6)cc5)CC4)c3C2=O)C(=O)N1 (stereo not drawn) | – | – | 1 | 1.2 | –
Cc1ncsc1-c1ccc([C@H](C)NC(=O)[C@@H]2C[C@@H](O)CN2C(=O)[C@@H](NC(=O)CCCCCCCCOc2ccccc2-c2csc(-c3csc(Nc4ccc(Cl)cc4)n3)n2)C(C)(C)C)cc1 | 0.6 | 0.7 | – | – | –
O=C1CCC(N2C(=O)c3cccc(NC(=O)CN4CCN(CCCCCCCCC(=O)Nc5ccc(-c6csc(-c7csc(Nc8ccc(Cl)cc8)n7)n6)cc5)CC4)c3C2=O)C(=O)N1 (stereo not drawn) | – | – | 1 | 1.6 | –
Cc1ncsc1-c1ccc([C@H](C)NC(=O)[C@@H]2C[C@@H](O)CN2C(=O)[C@@H](NC(=O)CCCCCCCCCCOc2ccccc2-c2csc(-c3csc(Nc4ccc(Cl)cc4)n3)n2)C(C)(C)C)cc1 | 1.8 | 1.7 | – | – | –
Cc1ncsc1-c1ccc([C@H](C)NC(=O)[C@@H]2C[C@@H](O)CN2C(=O)[C@@H](NC(=O)Cn2cc(COCCOCCOc3ccccc3-c3csc(-c4csc(Nc5ccc(Cl)cc5)n4)n3)nn2)C(C)(C)C)cc1 | 1.3 | 1.1 | – | – | –
O=C1CCC(N2Cc3c(NC(=O)CCCCCCCC(=O)Nc4ccc(-c5csc(-c6csc(Nc7ccc(Cl)cc7)n6)n5)cc4)cccc3C2=O)C(=O)N1 (stereo not drawn) | – | – | 0.8 | 1 | –
O=C1CCC(N2C(=O)c3cccc(NC(=O)CN4CCN(CCCCCCCCCC(=O)Nc5ccc(-c6csc(-c7csc(Nc8ccc(Cl)cc8)n7)n6)cc5)CC4)c3C2=O)C(=O)N1 (stereo not drawn) | – | – | 0.8 | 1.2 | –
Cc1ncsc1-c1ccc([C@H](C)NC(=O)[C@@H]2C[C@@H](O)CN2C(=O)[C@@H](NC(=O)Cn2cc(CCCCCOc3ccccc3-c3csc(-c4csc(Nc5ccc(Cl)cc5)n4)n3)nn2)C(C)(C)C)cc1 | 0.9 | 1.1 | – | – | –
CC(C)C[C@@H](C=O)NC(=O)[C@H](CC(C)C)NC(=O)[C@H](CC(C)C)NC(=O)OCc1ccccc1 [MG-132] (Cbz-Leu-Leu-Leu-aldehyde) | – | – | – | – | Activity [5]: Not Active
O=C1CCC(N2C(=O)c3cccc(NC(=O)CN4CCN(CCCCCCCCCCC(=O)Nc5ccc(-c6csc(-c7csc(Nc8ccc(Cl)cc8)n7)n6)cc5)CC4)c3C2=O)C(=O)N1 (stereo not drawn) | – | – | 1.2 | 1.5 | –
O=C1CCC(N2Cc3c(NC(=O)CCCCCCCCCCCCCC(=O)Nc4ccc(-c5csc(-c6csc(Nc7ccc(Cl)cc7)n6)n5)cc4)cccc3C2=O)C(=O)N1 (stereo not drawn) | – | – | 0.9 | 1 | –
O=C1CCC(N2C(=O)c3cccc(NC(=O)CN4CCN(CCCCCCCC(=O)Nc5ccc(-c6csc(-c7csc(Nc8ccc(Cl)cc8)n7)n6)cc5)CC4)c3C2=O)C(=O)N1 (stereo not drawn) | – | – | 0.7 | 1 | –
O=C1CCC(N2C(=O)c3cccc(NC(=O)CN4CCN(CCCCCCC(=O)Nc5ccc(-c6csc(-c7csc(Nc8ccc(Cl)cc8)n7)n6)cc5)CC4)c3C2=O)C(=O)N1 (stereo not drawn) | – | – | 0.8 | 0.9 | –
O=C1CCC(N2C(=O)c3cccc(NC(=O)CN4CCN(CCCCCCCCCCCC(=O)Nc5ccc(-c6csc(-c7csc(Nc8ccc(Cl)cc8)n7)n6)cc5)CC4)c3C2=O)C(=O)N1 (stereo not drawn) | – | – | 1.5 | 1.1 | –
O=C1CCC(N2Cc3c(NC(=O)CCCCCCCCCCCC(=O)Nc4ccc(-c5csc(-c6csc(Nc7ccc(Cl)cc7)n6)n5)cc4)cccc3C2=O)C(=O)N1 (stereo not drawn) | – | – | 0.7 | 1 | –
O=C1CCC(N2Cc3c(NC(=O)CCCCCCCCCC(=O)Nc4ccc(-c5csc(-c6csc(Nc7ccc(Cl)cc7)n6)n5)cc4)cccc3C2=O)C(=O)N1 (stereo not drawn) | – | – | 1.1 | 1.3 | –
Cc1ncsc1-c1ccc([C@H](C)NC(=O)[C@@H]2C[C@@H](O)CN2C(=O)[C@@H](NC(=O)CCCCCCCCCOc2ccccc2-c2csc(-c3csc(Nc4ccc(Cl)cc4)n3)n2)C(C)(C)C)cc1 | 1.5 | 1.5 | – | – | –
Cc1ncsc1-c1ccc([C@H](C)NC(=O)[C@@H]2C[C@@H](O)CN2C(=O)[C@@H](NC(=O)CCCCCCCOc2ccccc2-c2csc(-c3csc(Nc4ccc(Cl)cc4)n3)n2)C(C)(C)C)cc1 | 0.2 | 0.4 | – | – | Activity [6]: 60%; Activity [7]: > 70%
